Test [1] concerns MOG-induced IFN-γ in primary splenocytes. Nature of the test: IFN-γ Quantikine ELISA in primary splenocytes of EAE mice. Type of test: cell-based. Conditions: for Reduction in IFN-γ, % Reduction: splenocytes of EAE mice dosed 100 mg/kg orally daily vs MOG + Vehicle; for IFN-γ, Average / level of IFN-γ: splenocytes of EAE mice dosed 100 mg/kg orally daily, exogenous MOG; for decrease of IFN-γ in response to exogenous compound: splenocytes of compound-treated EAE mice (100 mg/kg); for decrease of IFN-γ in response to exogenous compound / reduction in the amount of MOG-induced IFN-γ: exogenous compound 30 μM, MOG 25 μg/mL; for reduction in the amount of MOG-induced IFN-γ: splenocytes of vehicle-treated EAE mice, 48 hrs. The method, then: On day 21, EAE mice were sacrificed by cervical dislocation and spleens were removed aseptically. The removed spleens were then cut with sterilized scissors and strained through […] mesh (BD Bioscience) with a plunger of 5 mL syringe (BD Bioscience) in 9 mL of RPMI 1640 (Invitrogen) with 100 U/mL penicillin and 100 μg/mL streptomycin (Sigma). The cell mixture was then added to 9 mL of Lympholyte (Cedarlane Laboratories) for gradient separation of splenocytes from red bloods cells by centrifugation at 1500 g for 20 min. After the centrifugation, the lympholyte layer containing splenocytes were carefully removed and washed with 10 mL of RPMI 1640 at 800 g for 10 min for three times. The isolated splenocytes were seeded onto different plate format and cultured with RPMI 1640 medium (Invitrogen) supplement with 10% heat inactivated fetal bovine serum (Invitrogen) and 100 U/mL penicillin and 100 μg/mL streptomycin at 37° C. CO2 incubator.
Splenocytes from EAE mice were cultured at the density of 1×10^6 cells in 12-well plates (Falcon) in the absence or presence of the MOG peptide (25 μg/mL) (Hooke Laboratories), DA001 and DA021 (30 μM) with RPMI 1640 medium (Invitrogen) supplement with 10% heat inactivated fetal bovine serum (Invitrogen) and 100 U/mL penicillin and 100 μg/mL streptomycin (Sigma) for 48 h. After 48 h, the supernatants were collected by pelleting the cells at 300 g for 10 min at 4° C. 50 μL of the each sample was added to the microtiter plate provided by the manufacturer of the Quantikine ELISA assay kit (R and D systems). Additional 50 μL of assay diluents buffer was added and incubated at room temperature for 2 h. After the incubation, the supernatants were discarded and the cells were washed with wash buffer. 100 μL of conjugate was added to the cells and the plate was again incubated at room temperature for 2 h. After another washing, 100 μL of substrate solution was added followed by 30 min incubation at room temperature. Subsequently, 100 μL of stop solution was added to each well and the plate was read in 450 nm wavelength on a microplate reader (Dynex Revelation 2.2).
Cytokines are believed to be one of the key signaling molecules in disease progression of EAE. Autoimmune response observed in the EAE model is believed to be mediated via the Th1 pathway, and interferon-gamma (IFN-γ) is the hallmark cytokine of the Th1 immune response. Therefore, it is critical to examine the efficacy of the compounds in modulating the levels of cytokines in EAE mice. To this end, splenocytes isolated from the spleens of EAE mice were cultured and treated with exogenous MOG peptide and the amount of IFN-γ was measured in response to exogenous DA001 and DA021 (30 μM) treatments using ELISA.
The cells were cultured in RPMI 1640 medium supplement with 10% heat inactivated fetal bovine serum and penicillin/streptomycin, in the absence or presence of MOG (25 μg/mL, Ex) with or without DA001 or DA021 (30 μM, Ex). Supernatants were collected after 48 hrs and IFN-γ Quantikine ELISA assay kit (R and D systems) was used according to the manufacturer's protocol. The amount of IFN-γ was calculated based on the standard curve established during the assay. The graph presented is the composite of two separate trials with duplicate samples in each trial. ***=p≦0.0001, **=p≦0.001, *=p≦0.01.
Cells were cultured in RPMI 1640 medium supplement with 10% heat inactivated fetal bovine serum and penicillin/streptomycin, in the absence or presence of MOG (25 μg/mL) with or without DA001 (30 μM). Supernatants were collected after 48 hrs and IFN-γ Quantikine ELISA assay kit (R and D systems) was used according to the manufacturer's protocol. The amount of IFN-γ was calculated based on the standard curve established during the assay. The graph presented is the composite of two separate trials with duplicate samples in each trial. ***=p≦0.0001. […]

A further test has as its system cortical neurons. The test can be described thus: Cortical neuron survival assay against glutamate excitotoxicity (LDH). Type of test: cell-based, Sprague-Dawley rats. Conditions: 30 μM 24 hrs, glutamate 10-200 μM 20 min; at high concentrations of glutamate. As to the method: Hippocampal neurons/cortical neurons were prepared from embryonic day 18 Sprague-Dawley rats. After the cortices had been removed from the brain, isolated cells were plated onto Poly d-Lysine (PDL) (P0899, Sigma)-coated 48 well plates (150687, NUNC) at a density of 2×10^5 cell per well using Neurobasal Medium (NB) (21103-049, Gibco) with B27 supplement (17504-044, Gibco), penicillin/streptomycin (15140, Gibco) and 1 mM L-glutamine (25030, Gibco). The cell culture was incubated at 37° C. in a humidified atmosphere of 5% CO2 in air. Medium was changed to growth medium (Neurobasal Medium with penicillin/streptomycin and B27 supplement) after 3 hours. Half medium was changed with growth medium every 2-3 days to maintain the cells until day 10 in vitro (DIV 10). Serial dilutions of samples were prepared in growth medium and DMSO was used as vehicle control. For pre-treating assay, half of the medium was removed from wells, and equal amount of diluted samples were replaced. Cells were then incubated for 2 hours at 37° C. in a humidified atmosphere of 5% CO2 in air. […] Afterwards, cells were incubated in growth medium for 18-24 hours and detected with Cytotoxicity Detection Kit (1644793, Roche).
Cortical neurons were pre-treated with DA021 or DA034 and subsequently subjected to varying concentrations of glutamate (10-200 μM). […] LDH release into the medium was then measured.

As to `C=C(C)[C@@H]1CC[C@]2(C(=O)O)CC[C@]3(C)C(CC[C@@H]4[C@@]5(C)CC[C@H](O[C@@H]6OC[C@H](O)[C@H](O)[C@H]6O[C@@H]6O[C@@H](C)[C@H](O)[C@@H](O)[C@H]6O)[C@@](C)(CO)[C@@H]5CC[C@]43C)[C@@H]12` (stereo partly drawn) [DA001, 3-O-[α-L-rhamnopyranosyl-(1→2)-α-L-arabinopyranosyl]-3,23-dihydroxy-20(29)-lupen-28-oic acid], in test [1], the “Reduction in IFN-γ, % Reduction” value was found to be 83.1%; the “IFN-γ, Average” value is listed as 105.7 ± 5.1 ρg/mL; the “level of IFN-γ” value worked out at 105 pg/mL; the “decrease of IFN-γ in response to exogenous compound” value is given as 91%. Besides, the “reduction in the amount of MOG-induced IFN-γ” value in test [1] came out at 71%.

As for `C=C(C)[C@@H]1CC[C@]2(/C=N/O)CC[C@]3(C)C(CCC4[C@@]5(C)CCC(=O)[C@@](C)(CO)[C@@H]5CC[C@]43C)C12` (stereo partly drawn) [DA021], in the test with cortical neurons, the “cell death (LDH release) vs DMSO control” value is “significant reduction in cell death”. In test [1], the “Reduction in IFN-γ, % Reduction” value was determined as 78.3%; the “IFN-γ, Average” value is on record as 135.3 ± 12.3 ρg/mL; the “level of IFN-γ” value was found to be 135 pg/mL; the “decrease of IFN-γ in response to exogenous compound” value is recorded as 78%. The “reduction in the amount of MOG-induced IFN-γ” value in test [1] is listed as 62%.

Regarding `CC(=O)OC[C@]12CC[C@@H](C3(C)CO3)C1C1CCC3[C@@]4(C)CC[C@H](O)[C@@](C)(CO)[C@@H]4CC[C@@]3(C)[C@]1(C)CC2` (stereo partly drawn) [DA034], the “cell death (LDH release) vs DMSO control” value in the test on cortical neurons is recorded as “significant reduction in cell death”.

Values taken from patent US9029414B2, “Triterpenoid compounds and methods of use thereof” (Biotechnology Research Corporation, priority 2008, dated 2015).
